Measured values as given in patent US10597388B2, “Pyridazinone herbicides” (FMC CORPORATION, priority 2014, dated 2020).

Key:
Assay in all cases: Test C greenhouse herbicide test, pre- and postemergence
Type in all cases: in vivo
[1] = test system: nutsedge, yellow (yellow nutsedge, Cyperus esculentus)
How it was run: (§1)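 Two application timings: at sowing into a soil/sand blend, and on 2–18 cm seedlings in peat-vermiculite potting mix. A non-phytotoxic, surfactant-containing solvent carried the compounds. Plants were compared with controls and rated visually on 0–100 after 13–15 d.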

[2] = test system: lambsquarters (Chenopodium album)
How it was run: as §1

[3] = test system: barnyardgrass (Echinochloa crus-galli)
How it was run: as §1

[4] = test system: crabgrass, large (large crabgrass, Digitaria sanguinalis)
How it was run: as §1

[5] = test system: velvetleaf (Abutilon theophrasti)
How it was run: as §1

[6] = test system: oilseed rape (Brassica napus)
How it was run: as §1

[7] = test system: galium (catchweed bedstraw, Galium aparine)
How it was run: as §1

[8] = test system: pigweed (Amaranthus retroflexus)
How it was run: as §1

[9] = test system: blackgrass (Alopecurus myosuroides)
How it was run: as §1

[10] = test system: foxtail, giant (giant foxtail, Setaria faberii)
How it was run: as §1

soybean (Glycine max) = test system: soybean (Glycine max)
How it was run: as §1

[11] = test system: johnsongrass (Sorghum halepense)
How it was run: as §1

[12] = test system: waterhemp (common waterhemp, Amaranthus rudis)
How it was run: as §1

[13] = test system: ragweed (common ragweed, Ambrosia elatior)
How it was run: as §1

[14] = test system: wheat (winter wheat, Triticum aestivum)
How it was run: as §1

[15] = test system: morningglory (Ipomoea coccinea)
How it was run: as §1

[16] = Postemergence, 31 g ai/ha, scale 0 to 100 (0 no effect, 100 complete control)
[17] = Postemergence, 62 g ai/ha, 0 to 100 scale (0 no effect, 100 complete control)
[18] = Postemergence, 250 g ai/ha, scale 0 to 100, 0 no effect, 100 complete control, 13 to 15 d
[19] = Preemergence, 31 g ai/ha, scale 0 to 100, 0 is no effect, 100 is complete control
[20] = Preemergence, 62 g ai/ha, scale 0 to 100, 0 is no effect, 100 is complete control
[21] = Preemergence, 125 g ai/ha, scale 0 to 100, 0 is no effect, 100 is complete control
[22] = Preemergence, 250 g ai/ha, scale 0 to 100 (0 no effect, 100 complete control)
[23] = postemergence, 125 g ai/ha, scale 0 to 100, 0 no effect, 100 complete control

COC(=O)Oc1c(Br)nn(C)c(=O)c1-c1c(C)ccc2ccccc12 [Compound 137]
Plant response rating, Nutsedge, Yellow [1, 16]: 65
Nutsedge, Yellow plant response rating [1, 17]: 85
Plant response rating, Nutsedge, Yellow [1, 18]: 90
Plant response rating, Nutsedge, Yellow [1, 19]: 55
Plant response rating, Nutsedge, Yellow [1, 20]: 85
Plant response rating, Nutsedge, Yellow [1, 21]: 90
Nutsedge, Yellow plant response rating [1, 22]: 95
Nutsedge, Yellow plant response rating [1, 23]: 85
Plant response rating, Lambsquarters [2, 16]: 90
Lambsquarters plant response rating [2, 17]: 90
Plant response rating, Lambsquarters [2, 18]: 100
Plant response rating, Lambsquarters [2, 19]: 90
Plant response rating, Lambsquarters [2, 20]: 100
Plant response rating, Lambsquarters [2, 21]: 100
Lambsquarters plant response rating [2, 22]: 95
Lambsquarters plant response rating [2, 23]: 98
Plant response rating, Barnyardgrass [3, 16]: 25
Barnyardgrass plant response rating [3, 17]: 40
Plant response rating, Barnyardgrass ([3]; Postemergence, 125 g ai/ha, scale 0 to 100, 0 is no effect, 100 is complete control): 50
Plant response rating, Barnyardgrass [3, 18]: 65
Plant response rating, Barnyardgrass [3, 19]: 35
Plant response rating, Barnyardgrass [3, 20]: 85
Plant response rating, Barnyardgrass [3, 21]: 90
Barnyardgrass plant response rating [3, 22]: 100
Plant response rating, Crabgrass, Large [4, 16]: 30
Crabgrass, Large plant response rating [4, 17]: 30
Plant response rating, Crabgrass, Large [4, 18]: 35
Plant response rating, Crabgrass, Large [4, 19]: 20
Plant response rating, Crabgrass, Large [4, 20]: 20
Plant response rating, Crabgrass, Large [4, 21]: 70
Crabgrass, Large plant response rating [4, 22]: 80
Crabgrass, Large plant response rating [4, 23]: 35
Plant response rating, Velvetleaf [5, 16]: 85
Velvetleaf plant response rating [5, 17]: 90
Plant response rating, Velvetleaf [5, 18]: 95
Plant response rating, Velvetleaf [5, 19]: 80
Plant response rating, Velvetleaf [5, 20]: 100
Plant response rating, Velvetleaf [5, 21]: 100
Velvetleaf plant response rating [5, 22]: 100
Velvetleaf plant response rating [5, 23]: 90
Plant response rating, Oilseed Rape [6, 16]: 95
Oilseed Rape plant response rating [6, 17]: 98
Plant response rating, Oilseed Rape [6, 18]: 98
Plant response rating, Oilseed Rape [6, 19]: 0
Plant response rating, Oilseed Rape [6, 20]: 90
Plant response rating, Oilseed Rape [6, 21]: 50
Oilseed Rape plant response rating [6, 22]: 90
Oilseed Rape plant response rating [6, 23]: 98
Plant response rating, Galium [7, 16]: 85
Galium plant response rating [7, 17]: 90
Plant response rating, Galium [7, 18]: 95
Plant response rating, Galium [7, 19]: 98
Plant response rating, Galium [7, 20]: 98
Plant response rating, Galium [7, 21]: 98
Galium plant response rating [7, 22]: 100
Galium plant response rating [7, 23]: 90
Plant response rating, Pigweed [8, 16]: 90
Pigweed plant response rating [8, 17]: 98
Plant response rating, Pigweed [8, 18]: 100
Plant response rating, Pigweed [8, 19]: 100
Plant response rating, Pigweed [8, 20]: 100
Plant response rating, Pigweed [8, 21]: 100
Pigweed plant response rating [8, 22]: 100
Pigweed plant response rating [8, 23]: 98
Plant response rating, Blackgrass [9, 16]: 0
Blackgrass plant response rating [9, 17]: 0
Plant response rating, Blackgrass [9, 18]: 0
Plant response rating, Blackgrass [9, 19]: 30
Plant response rating, Blackgrass [9, 20]: 40
Plant response rating, Blackgrass [9, 21]: 30
Blackgrass plant response rating [9, 22]: 90
Blackgrass plant response rating [9, 23]: 0
Plant response rating, Foxtail, Giant [10, 16]: 45
Foxtail, Giant plant response rating [10, 17]: 60
Plant response rating, Foxtail, Giant [10, 18]: 95
Plant response rating, Foxtail, Giant [10, 19]: 65
Plant response rating, Foxtail, Giant [10, 20]: 85
Plant response rating, Foxtail, Giant [10, 21]: 95
Foxtail, Giant plant response rating [10, 22]: 100
Foxtail, Giant plant response rating [10, 23]: 80
Plant response rating, Soybean (soybean (Glycine max); [16]): 10
Soybean plant response rating (soybean (Glycine max); [17]): 10
Plant response rating, Soybean (soybean (Glycine max); [18]): 20
Plant response rating, Soybean (soybean (Glycine max); [19]): 30
Plant response rating, Soybean (soybean (Glycine max); [20]): 20
Plant response rating, Soybean (soybean (Glycine max); [21]): 40
Soybean plant response rating (soybean (Glycine max); [22]): 30
Soybean plant response rating (soybean (Glycine max); [23]): 15
Plant response rating, Johnsongrass [11, 16]: 10
Johnsongrass plant response rating [11, 17]: 10
Plant response rating, Johnsongrass [11, 18]: 15
Plant response rating, Johnsongrass [11, 19]: 0
Plant response rating, Johnsongrass [11, 20]: 5
Plant response rating, Johnsongrass [11, 21]: 20
Johnsongrass plant response rating [11, 22]: 20
Johnsongrass plant response rating [11, 23]: 15
Plant response rating, Waterhemp [12, 16]: 85
Waterhemp plant response rating [12, 17]: 65
Plant response rating, Waterhemp [12, 18]: 90
Plant response rating, Waterhemp [12, 19]: 85
Plant response rating, Waterhemp [12, 20]: 98
Plant response rating, Waterhemp [12, 21]: 95
Waterhemp plant response rating [12, 22]: 98
Waterhemp plant response rating [12, 23]: 85
Plant response rating, Ragweed [13, 16]: 10
Ragweed plant response rating [13, 17]: 20
Plant response rating, Ragweed [13, 18]: 40
Plant response rating, Ragweed [13, 19]: 80
Plant response rating, Ragweed [13, 20]: 95
Plant response rating, Ragweed [13, 21]: 95
Ragweed plant response rating [13, 22]: 100
Ragweed plant response rating [13, 23]: 30
Plant response rating, Wheat [14, 16]: 75
Wheat plant response rating [14, 17]: 90
Plant response rating, Wheat [14, 18]: 95
Plant response rating, Wheat [14, 19]: 15
Plant response rating, Wheat [14, 20]: 80
Plant response rating, Wheat [14, 21]: 90
Wheat plant response rating [14, 22]: 90
Wheat plant response rating [14, 23]: 90
Plant response rating, Morningglory [15, 16]: 100
Morningglory plant response rating [15, 17]: 98
Plant response rating, Morningglory [15, 18]: 100
Plant response rating, Morningglory [15, 19]: 70
Plant response rating, Morningglory [15, 20]: 85
Plant response rating, Morningglory [15, 21]: 90
Morningglory plant response rating [15, 22]: 98
Morningglory plant response rating [15, 23]: 100
